This note sets out measurements from patent US20190247350A1, “COMPOSITION FOR IMPROVING DECREASED ABSORPTION IN DIGESTIVE TRACT, AND COMPOSITION FOR PROMOTING ABSORPTION IN DIGESTIVE TRACT” (AJINOMOTO CO., INC., priority 2016, published 2019).

What all share (type): in vivo, mouse
Assay [1] deals with peptide transporter gene (Slc15a1). Briefly: Expression of peptide transporter gene in small intestine after running exercise (GeneChip array). The following applies: feed with 2 wt % for 7 days, 4 hr running, small intestine 1 hr after running; compared to Ex group; P<0.01. The text has this: (§1) 7-Week-old male CD2F1 mice (CHARLES RIVER LABORATORIES JAPAN, INC.) were divided into 4 groups (“Sed”, “Ex”, “Ex+Gln” and “Ex+Cys2”) (n=6/group), Sed group and Ex group were made to ingest a standard purified feed (AIN-93G composition), Ex+Gln group was made to ingest a standard purified feed (AIN-93G composition) added with glutamine (2 wt %) by replacing casein, and Ex+Cys2 group was made to ingest a standard purified feed (AIN-93G composition) added with cystine (2 wt %) by replacing casein, each for 7 days. Thereafter, each group was fasted overnight, and Ex group, Ex+Gln group and Ex+Cys2 group were made to run in a running wheel for 4 hr (speed=10.5 m/min). Sed group was continuously fasted during the running exercise of Ex group, Ex+Gln group and Ex+Cys2 group. At 1 hr after completion of running, the small intestine was collected from the mice of each group, and total RNA was extracted using Rneasy Lipid Tissue Mini Kit (QIAGEN). GeneChip Mouse Genome 430 2.0 (3′IVT) array (Affymetrix) was used for the measurement of comprehensive gene expression. Difference in the gene expression level of each group was tested by Dunnett's test following one-way analysis of variance. […]

The subject of assay [2] is ABC protein G5 gene (Abcg5). Put plainly: Expression of ABC protein G5 gene in small intestine after running exercise (GeneChip array). The settings on record: feed with 2 wt % for 7 days, 4 hr running, small intestine 1 hr after running; compared to Ex group; P<0.05.
Excerpt: as §1

The test system of another assay is biotinidase gene (Btd). Briefly: Expression of biotinidase gene in small intestine after running exercise (GeneChip array). The following applies: feed with 2 wt % for 7 days, 4 hr running, small intestine 1 hr after running; compared to Ex group; P<0.01.
Excerpt: as §1

Assay [3] relates to sodium-dependent multivitamin transporter gene (Slc5a6). Briefly: Expression of sodium-dependent multivitamin transporter gene in small intestine after running exercise (GeneChip array). The following applies: feed with 2 wt % for 7 days, 4 hr running, small intestine 1 hr after running; compared to Ex group; P<0.05.
Excerpt: as §1

Another assay concerns aquaporin gene (Aqa3). Briefly: Expression of aquaporin gene in small intestine after running exercise (GeneChip array). The settings on record: feed with 2 wt % for 7 days, 4 hr running, small intestine 1 hr after running; compared to Ex group; P<0.01.
Excerpt: as §1

The test system of assay [4] is small intestine (everted intestine sample). Put plainly: Glucose absorption capacity of everted intestine sample after running exercise (Experimental Example 2). The settings on record: feed with cystine 2 wt % for 7 days, 4 hr running. The text has this: 7-Week-old male CD2F1 mice (CHARLES RIVER LABORATORIES JAPAN, INC.) were divided into 3 groups (“Sed”, “Ex” and “Ex+Cys2”) (n=12/group), Sed group and Ex group were made to ingest a standard purified feed (AIN-93G composition), and Ex+Cys2 group was made to ingest a standard purified feed (AIN-93G composition) added with cystine (2 wt %) by replacing casein, each for 7 days. Thereafter, each group was fasted overnight, and Ex group and Ex+Cys2 group were made to run in a running wheel for 4 hr (speed=10.5 m/min). Sed group was continuously fasted during the running exercise of Ex group and Ex+Cys2 group. […]
Ringer buffer containing 10 mM glucose was added to the serous membrane side and the villus side of the produced everted intestine sample of each group, and the sample was incubated under oxygen supply at 37° C. for 90 min. Thereafter, the everted intestine sample was taken out, and the glucose concentration of the Ringer buffer on the serous membrane side and the villus side was measured using a glucose measurement kit (“glucose CII Test Wako” (Wako Pure Chemical Industries, Ltd.)). The glucose absorption capacity of each group was calculated from the difference in the glucose concentration between the villus side and the serous membrane side. […]

Assay [5] deals with sodium-dependent glucose transporter gene (SGLT1). Put plainly: Expression of sodium-dependent glucose transporter gene in small intestine after running exercise (real-time PCR). The settings on record: feed with cystine 2 wt % for 7 days, 4 hr running; compared to Ex group; tendency toward significance at P<0.1. The text has this: 7-Week-old male CD2F1 mice (CHARLES RIVER LABORATORIES JAPAN, INC.) were divided into 3 groups (“Sed”, “Ex” and “Ex+Cys2”) (n=12/group), Sed group and Ex group were made to ingest a standard purified feed (AIN-93G composition), and Ex+Cys2 group was made to ingest a standard purified feed (AIN-93G composition) added with cystine (2 wt %) by replacing casein, each for 7 days. Thereafter, each group was fasted overnight, and Ex group and Ex+Cys2 group were made to run in a running wheel for 4 hr (speed=10.5 m/min). Sed group was continuously fasted during the running exercise of Ex group and Ex+Cys2 group. Immediately after completion of running, the small intestine was collected, everted intestine samples were produced according to the method of KirK et al. (ADVANCES In Physiology Education 37 (4) 415-426 (2013), which is incorporated herein by reference in its entirety). As the everted intestine sample, a part of 8 cm below the point of 4 cm from the pyloric part was used.
Furthermore, using Rneasy Lipid Tissue Mini Kit (QIAGEN), total RNA was extracted from a part of the small intestine used for producing the everted intestine sample. QuantStudio 12K Flex Real-Time PCR System (Thermo Fisher Scientific) was used for the measurement of the expression of sodium-dependent glucose transporter gene (SGLT1). […]

The test system of assay [6] is small intestine (everted intestine sample). Put plainly: Glucose absorption capacity of everted intestine sample without exercise (Experimental Example 3). The settings on record: non-exercise, feed with cystine 2 wt % for 7 days, 10 mM glucose, 37° C., 90 min, Sed+Cys2 compared to Sed group. The text has this:
7-Week-old male CD2F1 mice (CHARLES RIVER LABORATORIES JAPAN, INC.) were divided into 2 groups (“Sed” and “Sed+Cys2”) (n=6/group), Sed group was made to ingest a standard purified feed (AIN-93G composition), and Sed+Cys2 group was made to ingest a standard purified feed (AIN-93G composition) added with cystine (2 wt %) by replacing casein, each for 7 days. Then, each group was fasted overnight, and the small intestine was collected, everted intestine samples were produced according to the method of KirK et al. (ADVANCES In Physiology Education 37 (4) 415-426 (2013), which is incorporated herein by reference in its entirety). […]
Ringer buffer containing 10 mM glucose was added to the serous membrane side and the villus side of the everted intestine sample of each group, and the sample was incubated under oxygen supply at 37° C. for 90 min. Thereafter, the everted intestine sample was taken out, and the glucose concentration of the Ringer buffer on the serous membrane side and the villus side was measured using a glucose measurement kit (“glucose CII Test Wako” (Wako Pure Chemical Industries, Ltd.)). The glucose absorption capacity of each group was calculated from the difference in the glucose concentration between the villus side and the serous membrane side. The difference in the glucose absorption capacity of each group was determined by a comparison t-test between two groups. […]

Assay [7] relates to amino acid transporter gene (Slc7a7). Put plainly: Expression of amino acid transporter gene in small intestine after running exercise (GeneChip array). The following applies: feed with 2 wt % for 7 days, 4 hr running, small intestine 1 hr after running; compared to Ex group; tendency toward significance at P=0.1.
Excerpt: as §1

For assay [8], the system named is scavenge receptor class B gene (Scarb1). Put plainly: Expression of scavenge receptor class B gene in small intestine after running exercise (GeneChip array). The following applies: feed with 2 wt % for 7 days, 4 hr running, small intestine 1 hr after running; compared to Ex group; tendency toward significance at P<0.1.
Excerpt: as §1

The subject of assay [9] is ABC protein G8 gene (Abcg8). Put plainly: Expression of ABC protein G8 gene in small intestine after running exercise (GeneChip array). The settings on record: feed with 2 wt % for 7 days, 4 hr running, small intestine 1 hr after running; compared to Ex group; P<0.05.
Excerpt: as §1

Assay [10] concerns folic acid transporter gene (Slc46a1). Put plainly: Expression of folic acid transporter gene in small intestine after running exercise (GeneChip array). The following applies: feed with 2 wt % for 7 days, 4 hr running, small intestine 1 hr after running; compared to Ex group; P<0.05.
Excerpt: as §1

On to `NC(CSSCC(N)C(=O)O)C(=O)O` (stereo not drawn) [cystine, 3,3′-dithiobis(2-aminopropanoic acid)], for which the “expression level of peptide transporter gene (mRNA level)” value in [1] is “increased”. Moreover, the “expression level of ABC protein G5 gene (mRNA level)” value in [2] was “increased”. For the same compound, in the assay with biotinidase gene (Btd), the “expression level of biotinidase gene (mRNA level)” value is recorded as “increased”. The “expression level of sodium-dependent multivitamin transporter gene (mRNA level)” value in assay [3] is reported as “increased”. In addition, the “expression level of aquaporin gene (mRNA level)” value with aquaporin gene (Aqa3) is given as “increased”. In addition, the “glucose absorption capacity (difference in glucose concentration between villus side and serous membrane side)” value in [4] (10 mM glucose, 37° C., 90 min, compared to Ex group) is on record as “significantly (P<0.05) improved”; in [4] (Ex+Cys2 compared to Sed group (no exercise)) it was “higher”; in [6], “improved”. Further, in assay [5], the “expression of SGLT1 (mRNA amount)” value is on record as “tended to increase”.
As for `NC(=O)CCC(N)C(=O)O` (stereo not drawn) [glutamine, 2-amino-4-carbamoylbutanoic acid], in assay [7], the “expression level of amino acid transporter gene (mRNA level)” value is reported as “increased”. In [8], the “expression level of scavenge receptor class B gene (mRNA level)” value is “increased”. Moreover, in assay [9], the “expression level of ABC protein G8 gene (mRNA level)” value is on record as “increased”. Further, the “expression level of folic acid transporter gene (mRNA level)” value in assay [10] is “increased”. Further, the “expression level of biotinidase gene (mRNA level)” value with biotinidase gene (Btd) is on record as “increased”. Moreover, the “expression level of aquaporin gene (mRNA level)” value with aquaporin gene (Aqa3) is recorded as “increased”.
